# Measured values as given in publication PMC12920294, “Optimizing uPAR-targeting radiopeptides for improved tissue distribution: progress towards radionuclide therapy” (European Journal of Nuclear Medicine and Molecular Imaging, 2025).
# Read-outs that look alike come from different tables or passages of the source. Marks after values point to notes of the source that are not given here.
# How the values were obtained:
# [1] = type: in vitro ADME; conditions: 1 µM
# Procedure: The ^177Lu-labeled peptides (50 MBq/nmol) were incubated in mouse or human blood plasma (10 MBq/200 µL) over an incubation period of 24 h at 37 °C. Aliquots and control samples of the radiopeptides diluted in saline were analyzed after 1 h, 4 h and 24 h using thin layer chromatography (TLC) as previously reported (Supplementary Material). The distribution coefficients (logD values) of the ^177Lu-labeled peptides (50 MBq/nmol) were determined using a shake-flask method according to a previously published procedure (Supplementary Material).
# Methods: A sample of each radiopeptide (50 MBq/nmol) was added to mouse blood plasma (Lot: 32321, Rockland Immunochemicals Inc., USA) or to human blood plasma (Stiftung Blutspende SRK Aargau-Solothurn, Switzerland) to obtain an activity concentration of 10 MBq/200 µL. The test samples were incubated at 37 °C for up to 24 h. Control samples referred to the radiopeptides which were instead diluted in saline at an activity concentration of 10 MBq/200 µL. Aliquots of each sample (2 µL, ~100 kBq) were taken after 1 h, 4 h and 24 h and investigated by means of thin layer chromatography (TLC). The employed method involved reversed-phase TLC plates (MERCK Analytical Chromatography, TLC Silica gel 60 RP-18 F254s) as stationary phase and ACN/citrate buffer (3:7; v/v; pH 5.5) as mobile phase. After the eluent reached the front line, the TLC plates were dried and exposed to a phosphor screen (Super resolution screen PSR10450013, PerkinElmer) for 1 min. The respective screen was developed using a storage phosphor system (Cyclone Plus, PerkinElmer) and analyzed using the OptiQuant Software (version 5.0, Bright Instrument Co Ltd., PerkinElmer).
# mouse serum albumin = target: T1, mouse serum albumin (Mus musculus, UniProt P07724); type: in vitro ADME
# T1 construct: tissue Rockland Immunochemicals Inc., USA Lot: 32321; host or cells: mouse blood plasma
# Procedure: (§1) The albumin-binding properties of the radiopeptides in mouse and human blood plasma were determined using an ultrafiltration assay with Amicon centrifugal filters (cut-off of 10 kDa; Merck Millipore) as previously reported (Supplementary Material). A fixed amount of the respective radiopeptide (~ 300 kBq, 15 µL, 6 pmol) was added to a defined volume (150 µL) of mouse and human blood plasma dilutions to obtain [mouse serum albumin]-to-[radiopeptide] molar concentration ratios of 0.01‒12,500 and [human serum albumin]-to-[radiopeptide] molar concentration ratios of 0.01‒20,000. The data were analyzed using a semi-logarithmic Hill plot with the maximum binding set as 100% using GraphPad Prism software (version 10.1.1). The half-maximum binding (B50 values) of each radiopeptide was expressed as relative values using the inverse ratios with the value of [^177Lu]Lu-uPAR-11 set as 1.0. […] The samples were incubated at 37 °C for 30 min. Ice-cold PBS (150 µL, pH 7.4) was added before loading the blood plasma samples on Amicon centrifugal filters (cut-off of 10 kDa; Merck Millipore) followed by centrifugation (14000 rcf, 4 °C, 30 min) to allow the separation of the plasma protein-bound from the unbound (free) fractions of each sample. The inserts of the filter devices were inverted and centrifuged at 200 rcf for 3 min to recover the protein-bound radiopeptide. The activity of the protein-bound fraction was measured using a γ-counter (Wallac Wizard 1480, PerkinElmer). The activity in the filtrate and filter unit was counted in the γ-counter and the counts were combined, assuming that the fraction retained in the filter membrane was not bound to proteins. The protein-bound fraction was expressed as percentage of the whole activity (i.e. plasma protein-bound activity, activity measured in the filtrate and activity measured in the filter (set as 100%)). The data were analyzed using a semi-logarithmic plot assuming a maximum binding of 100%. The Hill equation was fitted to the data points, and the half-maximum binding (B50) was determined based on the obtained binding curves using GraphPad Prism software (version 10.1.1). To quantitatively express and compare the albumin-binding properties of the radiopeptides, the relative albumin-binding affinity was expressed as the inverse half-maximal-binding (B50) of the respective radioligand to that of [^177Lu]Lu-uPAR-11, which was set as 1.0. The results were presented as the value obtained from the average curve from 3 independent experiments.
# [2] = tested on: HEK-uPAR xenograft-bearing mice; conditions: mouse, in vivo
# Procedure: Single-photon emission computed tomography/computed tomography (SPECT/CT) experiments were performed using a small-animal SPECT/CT camera (NanoSPECT/CTTM, Mediso Medical Imaging Systems, Budapest, Hungary) as described previously (Supplementary Material). HEK-uPAR xenografted nude mice were scanned at 1 h, 4 h, 24 h […] after injection of the respective radiopeptide (25 MBq, 0.5 nmol, in 100 μL 0.9% NaCl containing 0.05% bovine serum albumin (BSA)) The images were prepared using VivoQuant post-processing software (version 3.5, inviCRO Imaging Services and Software, Boston, USA). A Gauss post-reconstruction filter (full width at half maximum, 1.0 mm) was applied and the scale of activity was set as indicated on the images (minimum value = 0.2 Bq/voxel, maximum value = 20 Bq/voxel). Methods: SPECT/CT experiments were performed with CD1 nude mice (Crl:CD1-Foxn1^nu) approximately 3-9 weeks after HEK-uPAR cell inoculation. The mice were scanned 1 h, 4 h and 24 h post injection (p.i.) of the respective radiopeptide (25 MBq, 0.5 nmol, 100 μL, diluted in 0.9% NaCl containing 0.05% bovine serum albumin (BSA)). Imaging studies were performed using a four-head, multiplexing, multi-pinhole small-animal SPECT/CT camera (NanoSPECT/CT^TM, Mediso Medical Imaging Systems, Budapest, Hungary). Each head was outfitted with a tungsten-based aperture of nine 1.4 mm-diameter pinholes and a thickness of 10 mm. CT scans of 7-9 min duration were followed by SPECT scans of 45-50 min. The images were acquired using Nucline Software (version 10.2, Mediso Ltd., Budapest, Hungary). The real-time CT reconstruction used a cone-beam filtered backprojection. The reconstruction of SPECT data was performed with HiSPECT software (version 1.4.3049, […] GmbH, Göttingen, Germany) using γ-energies of 56.1 keV (± 10%), 112.9 keV (± 10%) and 208.4 keV (± 10%) for lutetium-177. The images were prepared using VivoQuant post-processing software (version 3.5, inviCRO Imaging Services and Software, Boston, USA). A Gauss post-reconstruction filter (full width at half maximum, 1.0 mm) was applied and the scale of activity was set as indicated on the images (minimum value = 0.2 Bq/voxel, maximum value = 20 Bq/voxel).
# human serum albumin = human serum albumin (Homo sapiens, UniProt P02768); type: in vitro ADME; set-up: tissue Stiftung Blutspende SRK Aargau-Solothurn, Switzerland; host or cells: human blood plasma
# Procedure: as §1
# T1 sequence (P07724 25-608): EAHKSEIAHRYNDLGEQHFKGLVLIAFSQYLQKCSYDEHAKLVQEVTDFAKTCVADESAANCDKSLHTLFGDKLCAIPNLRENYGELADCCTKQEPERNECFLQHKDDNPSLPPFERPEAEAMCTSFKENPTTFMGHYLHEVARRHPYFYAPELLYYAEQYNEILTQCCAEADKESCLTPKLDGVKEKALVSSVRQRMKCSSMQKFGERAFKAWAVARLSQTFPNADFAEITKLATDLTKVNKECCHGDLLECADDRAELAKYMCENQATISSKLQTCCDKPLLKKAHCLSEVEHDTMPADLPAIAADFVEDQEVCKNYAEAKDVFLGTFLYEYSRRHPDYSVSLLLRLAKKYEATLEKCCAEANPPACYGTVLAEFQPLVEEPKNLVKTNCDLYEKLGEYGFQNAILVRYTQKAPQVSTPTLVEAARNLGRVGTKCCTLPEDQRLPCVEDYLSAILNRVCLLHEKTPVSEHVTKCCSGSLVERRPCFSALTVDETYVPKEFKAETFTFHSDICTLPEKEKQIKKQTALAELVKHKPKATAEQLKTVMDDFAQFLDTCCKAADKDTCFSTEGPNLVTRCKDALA
# Sequence of human serum albumin (P02768 25-609): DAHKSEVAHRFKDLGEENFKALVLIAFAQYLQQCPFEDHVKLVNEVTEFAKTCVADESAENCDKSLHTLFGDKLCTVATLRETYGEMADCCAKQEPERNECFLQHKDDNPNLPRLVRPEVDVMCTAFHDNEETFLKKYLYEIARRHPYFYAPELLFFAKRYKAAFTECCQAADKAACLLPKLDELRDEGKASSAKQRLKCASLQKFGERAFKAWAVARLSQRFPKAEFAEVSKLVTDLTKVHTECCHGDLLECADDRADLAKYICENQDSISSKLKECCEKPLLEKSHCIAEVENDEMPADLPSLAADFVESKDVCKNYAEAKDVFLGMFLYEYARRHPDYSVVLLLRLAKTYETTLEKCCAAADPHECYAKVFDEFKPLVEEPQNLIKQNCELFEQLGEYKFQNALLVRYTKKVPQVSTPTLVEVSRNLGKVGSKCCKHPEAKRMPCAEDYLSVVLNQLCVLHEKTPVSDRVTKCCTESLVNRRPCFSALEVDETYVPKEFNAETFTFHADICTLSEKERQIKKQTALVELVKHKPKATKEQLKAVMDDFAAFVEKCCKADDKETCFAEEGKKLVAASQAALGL
SMILES,"Human blood plasma stability, intact radiopeptide ([1]; 1 h)","Mouse blood plasma stability, intact radiopeptide ([1]; 1 h)","Human blood plasma stability, intact radiopeptide ([1]; 4 h)","Mouse blood plasma stability, intact radiopeptide ([1]; 4 h)","Human blood plasma stability, intact radiopeptide ([1]; 24 h)","Mouse blood plasma stability, intact radiopeptide ([1]; 24 h)",Weaker affinity to mouse albumin than [177Lu]Lu-uPAR-02 (mouse serum albumin),Inverse relative albumin-binding affinity (human serum albumin),Weaker affinity to human albumin than [177Lu]Lu-uPAR-02 (human serum albumin),Albumin-binding affinity relative to [177Lu]Lu-uPAR-11 (mouse serum albumin),"Albumin-binding properties, relative values (inverse B50 ratio) (mouse serum albumin)",SPECT/CT: accumulation in HEK-uPAR xenograft [2],SPECT/CT: blood retention [2]
"Cc1ccc(CCCC(=O)NCCOCCOCCOCCOCCC(=O)NCCCC[C@H](NC(=O)CN2CCN(CC(=O)O)CCN(CC(=O)O)CCN(CC(=O)O)CC2)C(=O)N[C@@H](CC(=O)O)C(=O)N[C@@H](CC2CCCCC2)C(=O)N[C@@H](Cc2ccccc2)C(=O)N[C@H](CO)C(=O)N[C@H](CCCNC(=N)N)C(=O)N[C@@H](Cc2ccc(O)cc2)C(=O)N[C@@H](CC(C)C)C(=O)N[C@@H](Cc2c[nH]c3ccccc23)C(=O)N[C@@H](CO)C(N)=O)cc1 [[^177Lu]Lu-uPAR-11, metal not drawn]",99 ± 1%,99 ± 1%,99 ± 1%,99 ± 1%,95 ± 1%,95 ± 1%,3.2 fold,1.00^b,4.6 fold,–,–,highest at 1 h p.i. and relatively well retained over the following hours,–
"Cc1ccc(CCCC(=O)NCCCCCCCC(=O)NCCCC[C@H](NC(=O)CN2CCN(CC(=O)O)CCN(CC(=O)O)CCN(CC(=O)O)CC2)C(=O)N[C@@H](CC(=O)O)C(=O)N[C@@H](CC2CCCCC2)C(=O)N[C@@H](Cc2ccccc2)C(=O)N[C@H](CO)C(=O)N[C@H](CCCNC(=N)N)C(=O)N[C@@H](Cc2ccc(O)cc2)C(=O)N[C@@H](CC(C)C)C(=O)N[C@@H](Cc2c[nH]c3ccccc23)C(=O)N[C@@H](CO)C(N)=O)cc1 [[^177Lu]Lu-uPAR-12, metal not drawn]",100 ± 1%,100 ± 1%,99 ± 1%,99 ± 1%,98 ± 1%,99 ± 1%,–,–,–,–,–,–,substantial blood retention was observed over the entire time of investigation
"Cc1ccc(CCCC(=O)NCCOCCOCCOCCC(=O)NCCCC[C@H](NC(=O)CN2CCN(CC(=O)O)CCN(CC(=O)O)CCN(CC(=O)O)CC2)C(=O)N[C@@H](CC(=O)O)C(=O)N[C@@H](CC2CCCCC2)C(=O)N[C@@H](Cc2ccccc2)C(=O)N[C@H](CO)C(=O)N[C@H](CCCNC(=N)N)C(=O)N[C@@H](Cc2ccc(O)cc2)C(=O)N[C@@H](CC(C)C)C(=O)N[C@@H](Cc2c[nH]c3ccccc23)C(=O)N[C@@H](CO)C(N)=O)cc1 [[^177Lu]Lu-uPAR-15, metal not drawn]",100 ± 1%,100 ± 1%,99 ± 1%,99 ± 1%,96 ± 1%,94 ± 2%,–,0.77,–,0.50‒0.77,0.77,highest at 1 h p.i. and relatively well retained over the following hours,–

# The next lines start with results.
"Human blood plasma stability, intact radiopeptide ([1]; 1 h)","Mouse blood plasma stability, intact radiopeptide ([1]; 1 h)","Human blood plasma stability, intact radiopeptide ([1]; 4 h)","Mouse blood plasma stability, intact radiopeptide ([1]; 4 h)","Human blood plasma stability, intact radiopeptide ([1]; 24 h)","Mouse blood plasma stability, intact radiopeptide ([1]; 24 h)",Weaker affinity to mouse albumin than [177Lu]Lu-uPAR-02 (mouse serum albumin),Inverse relative albumin-binding affinity (human serum albumin),Weaker affinity to human albumin than [177Lu]Lu-uPAR-02 (human serum albumin),Albumin-binding affinity relative to [177Lu]Lu-uPAR-11 (mouse serum albumin),"Albumin-binding properties, relative values (inverse B50 ratio) (mouse serum albumin)",SMILES,SPECT/CT: accumulation in HEK-uPAR xenograft [2],SPECT/CT: blood retention [2]
100 ± 1%,100 ± 1%,100 ± 1%,97 ± 4%,97 ± 2%,99 ± 2%,–,0.50,–,0.50‒0.77,0.66,"Cc1ccc(CCCC(=O)NCCOCCOCCOCCOCCC(=O)NC[C@H](NC(=O)CN2CCN(CC(=O)O)CCN(CC(=O)O)CCN(CC(=O)O)CC2)C(=O)N[C@@H](CC(=O)O)C(=O)N[C@@H](CC2CCCCC2)C(=O)N[C@@H](Cc2ccccc2)C(=O)N[C@H](CO)C(=O)N[C@H](CCCNC(=N)N)C(=O)N[C@@H](Cc2ccc(O)cc2)C(=O)N[C@@H](CC(C)C)C(=O)N[C@@H](Cc2c[nH]c3ccccc23)C(=O)N[C@@H](CO)C(N)=O)cc1 [[^177Lu]Lu-uPAR-14, metal not drawn]",almost entirely cleared at 24 h p.i.,–
100 ± 1%,100 ± 1%,99 ± 1%,97 ± 2%,96 ± 1%,61 ± 9%,–,0.65,–,0.50‒0.77,0.77,"Cc1ccc(CCCC(=O)NCCOCCOCCOCCOCCC(=O)NCCCC[C@H](NC(=O)CC[C@H](C(=O)O)N2CCN(CC(=O)O)CCN(CC(=O)O)CCN(CC(=O)O)CC2)C(=O)N[C@@H](CC(=O)O)C(=O)N[C@@H](CC2CCCCC2)C(=O)N[C@@H](Cc2ccccc2)C(=O)N[C@H](CO)C(=O)N[C@H](CCCNC(=N)N)C(=O)N[C@@H](Cc2ccc(O)cc2)C(=O)N[C@@H](CC(C)C)C(=O)N[C@@H](Cc2c[nH]c3ccccc23)C(=O)N[C@@H](CO)C(N)=O)cc1 [[^177Lu]Lu-uPAR-17, metal not drawn]",almost entirely cleared at 24 h p.i.,–
